Test results from US20230265167A1, “COMPOSITIONS HAVING NEUROREGENERATIVE APPLICATIONS” (GRIFOLS WORLDWIDE OPERATIONS LIMITED, priority 2020, published 2023).

What was measured:
SH-SY5Y cells [1] = assay: Neurite outgrowth (differentiation) in SH-SY5Y cells, Tubulin Tracker imaging; assay type: cell-based, human
Description: Transferrin is utilized in cell culture and in-vivo to deliver iron as a nutrient to cells. This is typically accomplished through the actions of holo-transferrin (HoloTf) binding to, and endocytosis by, its cognate receptor CD71, the transferrin receptor 1 (TfR1). Transferrin is typically believed to provide cells with iron as a means to promote and sustain metabolic activity. […] Induction of neuronal differentiation was assessed by morphological parameters of neurite formation (a key element typically used as a marker of neuronal differentiation, neuronal health, and function) according to the procedures of Agholme, 2010. J. of Alzheimer's Disease. Vol. 20:1p 069-108; and Dyberg et al., 2017. PNAS Vol 114 (32), E6603-E6612.
(§1) Undifferentiated SH-SY5Y cells were seeded into 96 well clear bottom plates in media containing 0.1% FBS. A serum-free base media was utilized as recommended by the supplier for SH-SY5Y cells (Sigma, Cat #94030304-1VL). Twenty-four hours after seeding cells, a 3× stock solution of ApoTf, final concentrations indicated on the x-axis, in serum free base media was added to the cells. ApoTf was obtained and purified from pooled human plasma and dosed at a final concentration of 0.2 mg/mL.
(§2) Cells were allowed to differentiate for 6 days. Neurite growth was assessed by imaging and image analysis. At the time of analysis, a 10× solution of Tubulin Tracker (Molecular Probes, T34075) and Hoechst 33342 (Molecular Probes #H3570) nuclear stain was prepared.
Briefly, Tubulin Tracker dissolved in DMSO was diluted 1:1 with Pluronic F-127 and further diluted into HBSS to generate a 10× solution. Hoechst 33342 was added to the HBSS-Tubulin Tracker solution at 10 μg/mL to generate a 10× nuclear stain. The 10× staining solution (10 μL) was added directly to treated assay wells and incubated at 37° C. for 30 minutes. Following incubation, 110 μL of 0.4% Trypan Blue was added directly to assay wells and imaged on a Molecular Devices Nano imaging instrument. Nine images/well were acquired in the blue (Nuclei) and green (Tubulin) fluorescent channels for each image.
(§3) After obtaining images, the MetaExpress Neurite Outgrowth analysis module (Molecular Devices) was used to identify cells, cell bodies, and quantify neurites. The total number of neurite branches were divided by the total number of cells imaged to account for different numbers of cells in each test well. The Outgrowth Fold Change was determined by setting the untreated control cells to a value of 1 with all other treatments shown relative to untreated control.
Undifferentiated SH-SY5Y cells were seeded and treated as described in Example 1. Neurite growth was assessed by imaging and image analysis. At the time of analysis, a 10× solution of Tubulin Tracker (Molecular Probes, T34075) and Hoechst 33342 (Molecular Probes #H3570) nuclear stain was prepared. Briefly, Tubulin Tracker dissolved in DMSO was diluted 1:1 with Pluronic F-127 and further diluted into HBSS to generate a 10× solution. Hoechst 33342 was added to the HBSS-Tubulin Tracker solution at 10 μg/mL to generate at 10× nuclear stain. The 10× staining solution (10 μL) was added directly to treated assay wells and incubated at 37° C. for 30 minutes. Following incubation, 110 μL of 0.4% Trypan Blue was added directly to assay wells and imaged on a Molecular Devices Nano imaging instrument. Nine images/well were acquired in the blue (Nuclei) and green (Tubulin) fluorescent channels for each image. After obtaining images, the MetaExpress Neurite Outgrowth analysis module (Molecular Devices) was used to identify cell bodies and quantify neurites. The total number of neurite branches were divided by the total number of cells imaged to account for different numbers of cells. The Outgrowth Fold Change was determined by setting the untreated control to a value of 1 with all other treatments shown relative to untreated control. ApoTf was obtained and purified from pooled human plasma and dosed at a final concentration of 0.2 mg/mL. […]

SH-SY5Y cells [2] = assay: Cell number / proliferation of SH-SY5Y cells by imaging; assay type: cell-based, human
Description: as §1, §2
Briefly, Tubulin Tracker dissolved in DMSO was diluted 1:1 with Pluronic F-127 and further diluted into HBSS to generate a 10× solution. Hoechst 33342 was added to the HBSS-Tubulin Tracker solution at 10 μg/mL to generate a 10× nuclear stain. […]
as §3, with “The total number of neurite branches were divided by the total number of cells imaged to account for different numbers of cells in each test well.” left out

SH-SY5Y cells [3] = assay: β-III-tubulin staining intensity in SH-SY5Y cells; assay type: cell-based, human; details: FIG. 1D
Description: In this experiment, the SH-SY5Y cells were differentiated as described supra. At the time of analysis, cells were fixed with paraformaldehyde, stained for β-III-tubulin (R&D Systems, MAB1195), and imaged on a Molecular Devices Nano imaging instrument. Image analysis was performed by assessing the fluorescent intensity of cells stained with β-III-tubulin. Background from secondary antibody alone was subtracted from all values. Values are shown with standard deviations as “β-III-Tubulin Staining Intensity” for the indicated conditions.

[4] = tested on: C57BL/6J mice with transient MCAo; assay: Novel object recognition test (NORT) after transient MCAo; assay type: in vivo, mouse; details: FIG. 10C, at least two weeks, vs saline
Description: C57BL/6J mice (ca. 20 g) were anaesthetized under isoflurane and, after dissection, a 6.0 silicon-coated monofilament suture was inserted into the external carotid artery to occlude the middle cerebral artery (MCAo). The occlusion was carried out for 60 minutes under temperature control.
Only animals with a ‘neuroscore’ of 4 or greater were considered for further testing (n=8-10 animals/group). At six hours post-occlusion, mice were injected daily with 350 mg/kg of Apo-transferrin (i.p.) or an equal volume of saline for a total of seven days, as well as with 50 mg/kg Bromodeoxyuridine (BrdU; Sigma-Aldrich Chemical, St. Louis, Mo.), both articles delivered by intraperitoneal administration. Weight changes were monitored daily.
Mice were prepared as indicated in Example 9 above and were subjected to assessments at 3 days and 1, 2, 3, 4 weeks post-MCAo, as indicated (n=8-10 animals/group). Motor coordination (i.e. equilibrium behavior and locomotor ability as a function of cortico-striatal function) was assessed using a rotarod test. Learning and memory capacity were measured using the NORT (novel object recognition test; for example, Anglada-Huguet et al., 2014, Molecular Neurobiology, vol. 49, pages 784-795; Denninger et al., 2018, J. Vis. Exp., vol. 141, e58593).
The time that it takes an animal to fall (Latency to fall) from the rotarod is shown vs time after MCAo. The motor skills of the mice reflect those of the neuroscore in FIG. 10A, with an increased rate of improvement in motor/balance skills, as measured by the amount of time animals stayed on the rotarod apparatus. […] The Discrimination (%) is a description of an animal's memory, as measured by the percentage of time in which an animal investigates newly presented objects compared to the time they investigate previously presented objects. Animals with better cognition and memory spend more time with the novel object due to memories of the object previously presented to the animal; this is shown as increased % Discrimination.

HIF-1α = details: reported in US2016008437; cited from earlier work

apo-transferrin: iron-free form of transferrin protein, obtained and purified from pooled human plasma
neurite outgrowth (Outgrowth Fold Change) (SH-SY5Y cells [1]; FIG. 1A, dose response up to 0.8 mg/mL, 6 days): able to induce neurite outgrowth in a dose dependent manner | neurite/tubulin outgrowth, visual comparison to untreated control (SH-SY5Y cells [1]; FIG. 1C, 0.1 mg/mL): promoting induction of neurite/tubulin outgrowth | neurite outgrowth / differentiation versus concentration (SH-SY5Y cells [1]; FIG. 3A, DFO versus ApoTf): continues to increase differentiation even up to 9.9 μM | neurogenesis (neurite outgrowth) of SH-SY5Y (SH-SY5Y cells [1]; FIG. 3B, proteins at 0.2 mg/mL): did induce neurogenesis | neurogenic effect, ApoTf in combination with Y-27632 (SH-SY5Y cells [1]; FIG. 8, ApoTf 0.1 mg/mL plus Y-27632 50 μM): the neurogenic effect was synergistic | differentiation / neurite outgrowth, combination with neurotrophic factors (SH-SY5Y cells [1]; FIGS. 7A-7D, ApoTf 0.1 mg/mL plus factor): synergistic effect | cell numbers (cell proliferation) (SH-SY5Y cells [2]; FIG. 1B, up to 0.8 mg/mL): induces a concentration-dependent increase in cell numbers | cell proliferation, visual comparison to untreated control (SH-SY5Y cells [2]; FIG. 1C, 0.1 mg/mL): profound effect on promoting cell proliferation | β-III-Tubulin Staining Intensity (SH-SY5Y cells [3]): caused an increase in β-III-tubulin protein | learning recognition / Discrimination (%) in NORT [4]: higher cognition | learning recognition / Discrimination (%) in NORT ([4]; listed as ApoTf): increases learning recognition functions | learning recognition / Discrimination (%) in NORT ([4]; listed as apoTf): higher ‘percent Discrimination’ | HIF-1α production (HIF-1α): can induce HIF-1α production
